Source: patent US20010053796A1, “Delta-aminolevulinic acid for prevention and treatment of infection microorganisms and parasite” (priority 2000, published 2001)

Tests used:
[1] = tested on: CHSE (Chinook Salmon Embryo); conditions: 24 h
Description: δ-aminolevulinic acid feed were prepared to 1.0 M concentration (0. 167 g/mL HBSS) and diluted by 10-fold dilution method. 100 μl of each fish cell line suspension of 2.5×10^5 were placed into 96-well microplate and then, 100 μl of each of the resulting diluted solution, 4 well/dilution unit, were added respectively. Fish cell lines, which were used for this cell toxicity experiment of δ-aminolevulinic acid, were RTG-2 (Rainbow Trout Gonad), FHM (Fathead Minnow Epithelioma) and CHSE (Chinook Salmon Embryo) lotted out from Dr. M. Yoshimizu of the Department of Fisheries, Hokkaido University, Japan. For these experimental cells, 100 U/mL penicillin (Sigma), 100 μl/mL streptomycin (Sigma) and MEM media supplemented with 5% fetal bovine serum (FBS, Gibco) for cell culture were used. Cultured cells in 96-well microplate was incubated for 3 hrs at 15° C. and δ-aminolevulinic acid were added to wells at amounts of 100 μl of 0, 1.0, 10, 50 and 100 mM and incubated for 24 hrs at 18° C. As a control group, instead of δ-aminolevulinic acid, HBSS was added at the same amount. […] Absorbance was measured with an ELISA reader at 570 μl.

[2] = tested on: White Spot Syndrome Virus (WSSV); assay: Treatment for WSSV infected shrimp; type: in vivo, Penaeus Chinesis
Description: In this experiment, after injection of the viral homogenate aforementioned in EXPERIMENT 1, treatment group was immersed respectively in 0.01˜10 ppm of ALA for 1.5 hour for 3 days.

Pseudomonas sp. = assay: Prevention effect for artificial infection (abdominal injection of bacteria); type: in vivo, Sebastes schlegeli; conditions: for Mortality during Cultivation: dead of 20 fish
Description: The water temperature was maintained at 20° C. (±2° C. ) throughout the experiment.
As the same method of above Experiment 1, fishes of both control group and experiment group were prepared and artificially infected by direct abdominal injection of Edwardsiella tarda 10^5 CFU per 1 fish. Each experimental fish was moved to fish tanks for monitoring and monitored for mortality according to infection for 2 weeks and viability after 2 weeks.
Bastardhalibut and Sebastes schlegeli were infected by Pseudomonas sp. through abdominal injection with the same method of fish breeding; δ-aminolevulinic acid treatment and artificial infection carried out in Experiment 1 and 2. Each experimental fish was moved to fish tanks for monitoring and monitored for mortality according to infection for 2 weeks.

[3] = tested on: White Spot Syndrome Virus (WSSV); assay: Prevention for White Spot Syndrome Virus infected shrimp; type: in vivo, Penaeus Chinesis
Description: The Shrimps (Penaeus Chinesis, size 6˜8 cm) were immersed in 0.01˜10 ppm of EnviroVax for 1.5 hr during 3 days and injected viral homogenate at 4 day.
The Viral homogenate was prepared as follows:
Homogenize 1 g of tissue (gill and stomach) in 1 ml PBS.
Centrifuge at 2,000 rpm for 10 min. at 4° C.
Filter the supernatant by using the 0.45 μm membrane filter.
Dilute the filtrate (1 part of filtrate to 10 parts of PBS).

[4] = 0.01 ppm, after injection for 3 weeks
[5] = 0.1 ppm, after injection for 3 weeks
[6] = 1.0 ppm, after injection for 3 weeks
[7] = 10 ppm, after injection for 3 weeks
[8] = orally, 1.0 ppm in feed, Sebastes schlegeli
[9] = orally, 10 ppm in feed, Sebastes schlegeli
[10] = orally, 100 ppm in feed, Sebastes schlegeli
[11] = to fish tanks, 0.01 ppm, Sebastes schlegeli
[12] = to fish tanks, 0.1 ppm, Sebastes schlegeli
[13] = to fish tanks, 1.0 ppm, Sebastes schlegeli

NCC(=O)CCC(=O)O [δ-aminolevulinic acid]
safe range of toxicity [1]: below 10 mM | Cumulative mortality [2, 4]: 100% | Mortality after injection for 3 weeks ([2]; 0.01 ppm, day 1, 50 shrimp): 0 | Mortality after injection for 3 weeks ([2]; 0.01 ppm, day 2, 50 shrimp): 0 | Mortality after injection for 3 weeks ([2]; 0.01 ppm, day 3, 50 shrimp): 15 | Mortality after injection for 3 weeks ([2]; 0.01 ppm, day 4, 50 shrimp): 20 | Mortality after injection for 3 weeks ([2]; 0.01 ppm, day 5, 50 shrimp): 12 | Mortality after injection for 3 weeks ([2]; 0.01 ppm, day 6, 50 shrimp): 3 | Cumulative mortality [2, 5]: 18% | Mortality after injection for 3 weeks ([2]; 0.1 ppm, day 1, 50 shrimp): 0 | Mortality after injection for 3 weeks ([2]; 0.1 ppm, day 2, 50 shrimp): 0 | Mortality after injection for 3 weeks ([2]; 0.1 ppm, day 3, 50 shrimp): 4 | Mortality after injection for 3 weeks ([2]; 0.1 ppm, day 4, 50 shrimp): 3 | Mortality after injection for 3 weeks ([2]; 0.1 ppm, day 5, 50 shrimp): 2 | Mortality after injection for 3 weeks ([2]; 0.1 ppm, day 6, 50 shrimp): 0 | Mortality after injection for 3 weeks ([2]; 0.1 ppm, day 7, 50 shrimp): 0 | Mortality after injection for 3 weeks ([2]; 0.1 ppm, day 21, 50 shrimp): 0 | Cumulative mortality [2, 6]: 10% | Mortality after injection for 3 weeks ([2]; 1.0 ppm, day 1, 50 shrimp): 0 | Mortality after injection for 3 weeks ([2]; 1.0 ppm, day 2, 50 shrimp): 0 | Mortality after injection for 3 weeks ([2]; 1.0 ppm, day 3, 50 shrimp): 3 | Mortality after injection for 3 weeks ([2]; 1.0 ppm, day 4, 50 shrimp): 2 | Mortality after injection for 3 weeks ([2]; 1.0 ppm, day 5, 50 shrimp): 0 | Mortality after injection for 3 weeks ([2]; 1.0 ppm, day 6, 50 shrimp): 0 | Mortality after injection for 3 weeks ([2]; 1.0 ppm, day 7, 50 shrimp): 0 | Mortality after injection for 3 weeks ([2]; 1.0 ppm, day 21, 50 shrimp): 0 | Cumulative mortality [2, 7]: 8% | Mortality after injection for 3 weeks ([2]; 10 ppm, day 1, 50 shrimp): 0 | Mortality after injection for 3 weeks ([2]; 10 ppm, day 2, 50 shrimp): 0 | Mortality after injection for 3 weeks ([2]; 10 ppm, day 3, 50 shrimp): 3 | Mortality after injection for 3 weeks ([2]; 10 ppm, day 4, 50 shrimp): 1 | Mortality after injection for 3 weeks ([2]; 10 ppm, day 5, 50 shrimp): 0 | Mortality after injection for 3 weeks ([2]; 10 ppm, day 6, 50 shrimp): 0 | Mortality after injection for 3 weeks ([2]; 10 ppm, day 7, 50 shrimp): 0 | Mortality after injection for 3 weeks ([2]; 10 ppm, day 21, 50 shrimp): 0 | Cumulative mortality ([2]; immersion 1.0 ppm, 1.5 hour for 3 days after virus injection, 3 weeks): 10% | Cumulative mortality ([2]; immersion 10 ppm, 1.5 hour for 3 days after virus injection, 3 weeks): 8% | Viability (Pseudomonas sp.; orally, 0.1 ppm in feed): 60% | Mortality during Cultivation (Pseudomonas sp.; orally, 0.1 ppm in feed): 8 | Viability (Pseudomonas sp.; [8]): 60% | Mortality during Cultivation (Pseudomonas sp.; [8]): 8 | Viability (Pseudomonas sp.; [9]): 85% | Mortality during Cultivation (Pseudomonas sp.; [9]): 3 | Viability (Pseudomonas sp.; [10]): 85% | Mortality during Cultivation (Pseudomonas sp.; [10]): 3 | Viability (Pseudomonas sp.; [11]): 55% | Mortality during Cultivation (Pseudomonas sp.; [11]): 9 | Viability (Pseudomonas sp.; [12]): 55% | Mortality during Cultivation (Pseudomonas sp.; [12]): 9 | Viability (Pseudomonas sp.; [13]): 85% | Mortality during Cultivation (Pseudomonas sp.; [13]): 3 | Viability (Pseudomonas sp.; to fish tanks, 10 ppm): 90% | Mortality during Cultivation (Pseudomonas sp.; to fish tanks, 10 ppm): 2 | Cumulative mortality [3, 4]: 100% | Mortality after injection for 3 weeks ([3]; 0.01 ppm, day 1, 50 shrimp): 0 | Mortality after injection for 3 weeks ([3]; 0.01 ppm, day 2, 50 shrimp): 0 | Mortality after injection for 3 weeks ([3]; 0.01 ppm, day 3, 50 shrimp): 15 | Mortality after injection for 3 weeks ([3]; 0.01 ppm, day 4, 50 shrimp): 20 | Mortality after injection for 3 weeks ([3]; 0.01 ppm, day 5, 50 shrimp): 12 | Mortality after injection for 3 weeks ([3]; 0.01 ppm, day 6, 50 shrimp): 3 | Cumulative mortality [3, 5]: 12% | Mortality after injection for 3 weeks ([3]; 0.1 ppm, day 1, 50 shrimp): 0 | Mortality after injection for 3 weeks ([3]; 0.1 ppm, day 2, 50 shrimp): 0 | Mortality after injection for 3 weeks ([3]; 0.1 ppm, day 3, 50 shrimp): 2 | Mortality after injection for 3 weeks ([3]; 0.1 ppm, day 4, 50 shrimp): 3 | Mortality after injection for 3 weeks ([3]; 0.1 ppm, day 5, 50 shrimp): 1 | Mortality after injection for 3 weeks ([3]; 0.1 ppm, day 6, 50 shrimp): 0 | Mortality after injection for 3 weeks ([3]; 0.1 ppm, day 7, 50 shrimp): 0 | Mortality after injection for 3 weeks ([3]; 0.1 ppm, day 21, 50 shrimp): 0 | Cumulative mortality [3, 6]: 8% | Mortality after injection for 3 weeks ([3]; 1.0 ppm, day 1, 50 shrimp): 0 | Mortality after injection for 3 weeks ([3]; 1.0 ppm, day 2, 50 shrimp): 1 | Mortality after injection for 3 weeks ([3]; 1.0 ppm, day 3, 50 shrimp): 2 | Mortality after injection for 3 weeks ([3]; 1.0 ppm, day 4, 50 shrimp): 1 | Mortality after injection for 3 weeks ([3]; 1.0 ppm, day 5, 50 shrimp): 0 | Mortality after injection for 3 weeks ([3]; 1.0 ppm, day 6, 50 shrimp): 0 | Mortality after injection for 3 weeks ([3]; 1.0 ppm, day 7, 50 shrimp): 0 | Mortality after injection for 3 weeks ([3]; 1.0 ppm, day 21, 50 shrimp): 0 | Cumulative mortality [3, 7]: 6% | Mortality after injection for 3 weeks ([3]; 10 ppm, day 1, 50 shrimp): 0 | Mortality after injection for 3 weeks ([3]; 10 ppm, day 2, 50 shrimp): 0 | Mortality after injection for 3 weeks ([3]; 10 ppm, day 3, 50 shrimp): 3 | Mortality after injection for 3 weeks ([3]; 10 ppm, day 4, 50 shrimp): 0 | Mortality after injection for 3 weeks ([3]; 10 ppm, day 5, 50 shrimp): 0 | Mortality after injection for 3 weeks ([3]; 10 ppm, day 6, 50 shrimp): 0 | Mortality after injection for 3 weeks ([3]; 10 ppm, day 7, 50 shrimp): 0 | Mortality after injection for 3 weeks ([3]; 10 ppm, day 21, 50 shrimp): 0 | Cumulative mortality ([3]; immersion 1.0 ppm, 1.5 hr during 3 days before virus injection, 3 weeks): 8% | Cumulative mortality ([3]; immersion 10 ppm, 1.5 hr during 3 days before virus injection, 3 weeks): 6%
